Consider 19 compounds from PMC8915600, “Optimization of experimental conditions for skin-PAMPA measurements” (ADMET & DMPK, 2020).

For data set [1] the following is noted: logarithm of human skin permeation coefficient, neutral form; corrected for ionization in water and for temperature at 37 °C; cited from earlier work.
Data set [2] can be described thus: skin-PAMPA permeability assay (gradient-pH, UPLC-DAD). The note with it: optimized assay conditions (4 h incubation, stirring), measured at the pH corresponding to the neutral form, acceptor pH 7.4; for Papp at 4 h, 50 μM: PAMPA, pH 7.4, log Pe.

As a reminder, the Papp is the rate of passage across a membrane or cell layer, normalised by area and donor concentration. The low end stands for slow passage, the high end for fast passage.

As for `Cc1ccc(C(C)C)c(O)c1` [2-Isopropyl-5-Methylphenol (Thymol), 2-Isopropyl-5-Methylphenol], the “log Kp” value in data set [1] is given as -4.35 cm/s. The Papp at 4 h, 50 μM in data set [2] was 97.7 ×10⁻⁶ cm/s. On to `Nc1ccc(O)c([N+](=O)[O-])c1` [4-Amino-2-nitrophenol], for which, in data set [1], the “log Kp” value is given as -5.91 cm/s. For the same compound, the Papp at 4 h, 50 μM in data set [2] is 25.7 ×10⁻⁶ cm/s. For `Oc1ccc(Cl)cc1` [4-Chlorophenol], the “log Kp” value in data set [1] is listed as -4.52 cm/s. Consider `CCc1ccc(O)cc1` [4-Ethylphenol], for which, in data set [1], the “log Kp” value is -4.53 cm/s. In data set [2], this compound showed a Papp at 4 h, 50 μM of 64.6 ×10⁻⁶ cm/s. Take `COC(=O)Cc1ccc(O)cc1` [4-Hydroxy-methylphenylacetate]: in data set [1], the “log Kp” value is -5.26 cm/s. The “log Pe” value in data set [2] is -5.07±0.09 cm/s.

As to `OCc1ccc(O)cc1` [4-Hydroxybenzyl alcohol], the “log Kp” value in data set [1] was -6.26 cm/s. The compound also had a Papp at 4 h, 50 μM in data set [2] of 1.41 ×10⁻⁶ cm/s. For `NC(=O)Cc1ccc(O)cc1` [4-Hydroxyphenylacetamide], in data set [1], the “log Kp” value was -6.89 cm/s. The Papp at 4 h, 50 μM in data set [2] was 0.851 ×10⁻⁶ cm/s. On to `COc1c2occc2cc2ccc(=O)oc12` [8-Methoxypsoralen], for which, in data set [2], the Papp at 4 h, 50 μM was 50.1 ×10⁻⁶ cm/s. For the compound `O=C(OCc1ccccc1)c1cccnc1` [Benzyl nicotinate], in data set [1], the “log Kp” value was -4.87 cm/s. The compound also showed a Papp at 4 h, 50 μM in data set [2] of 69.2 ×10⁻⁶ cm/s. As for `Cn1c(=O)c2c(ncn2C)n(C)c1=O` [Caffeine], the “log Kp” value in data set [1] was -6.85 cm/s. As to `Oc1ccccc1O` [Catechol], the “log Kp” value in data set [1] is -5.87 cm/s. In data set [2], this compound gave a Papp at 4 h, 50 μM of 4.07 ×10⁻⁶ cm/s.

In the case of `C[C@]12CCC(=O)C=C1CC[C@@H]1[C@@H]2CC[C@@]2(C)[C@H]1CC[C@]2(O)C(=O)CO` [Cortexolone], the “log Kp” value in data set [1] is on record as -7.20 cm/s. Besides, in data set [2], the Papp at 4 h, 50 μM is 3.55 ×10⁻⁶ cm/s. As for `O=C(O)Cc1ccccc1Nc1c(Cl)cccc1Cl` [Diclofenac], the “log Kp” value in data set [1] is given as -5.30 cm/s. The compound also had a Papp at 4 h, 50 μM in data set [2] of 162 ×10⁻⁶ cm/s. As to `C[C@]12CC[C@@H]3c4ccc(O)cc4CC[C@H]3[C@@H]1CC[C@@H]2O` [Estradiol], in data set [1], the “log Kp” value is on record as -5.61 cm/s. Regarding `CC(=O)OCC(=O)[C@@]12OC(C)(C)O[C@@H]1C[C@H]1[C@@H]3C[C@H](F)C4=CC(=O)C=C[C@]4(C)[C@@]3(F)[C@@H](O)C[C@@]12C` [Fluocinonide], the Papp at 4 h, 50 μM in data set [2] is 4.17 ×10⁻⁶ cm/s. Take `Oc1ccc(O)cc1` [Hydroquinone]: the “log Kp” value in data set [1] is listed as -6.31 cm/s. In addition, in data set [2], the Papp at 4 h, 50 μM is 1.35 ×10⁻⁶ cm/s. On to `CC(=O)[C@@]1(O)CC[C@H]2[C@@H]3CCC4=CC(=O)CC[C@]4(C)[C@H]3CC[C@@]21C` [Hydroxyprogesterone], for which the “log Kp” value in data set [1] is given as -6.30 cm/s. Moreover, the “log Pe” value in data set [2] is reported as -4.70±0.05 cm/s. Consider `CC(C(=O)O)c1cccc(C(=O)c2ccccc2)c1` (stereo not shown) [Ketoprofen], for which the “log Kp” value in data set [1] is reported as -5.22 cm/s. `COC(=O)c1ccc(O)cc1` [Methyl 4-hydroxybenzoate]: the “log Kp” value in data set [1] is -5.12 cm/s.
